# Laboratory results as given in US6825230B2, “Spiro and dispiro 1,2,4-trixolane antimalarials” (Medicines for Malaria Venture MMV, priority 2002, dated 2004).
# Like-named read-outs stand apart in the source and are kept apart here.
# Assays:
# [1] = tested on: chloroquine-sensitive NF54 strain of P. falciparum; test: In vitro antimalarial semiautomated microdilution assay ([3H]-hypoxanthine incorporation), NF54 strain; type: cell-based, Plasmodium falciparum; details: Plasmodium falciparum
# Outline: (§1)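 IC50 comes from Logit regression of [3H]-hypoxanthine incorporation data. Intraerythrocytic P. falciparum taken from asynchronous stock cultures is exposed to OZ compounds in a semiautomated microdilution format.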
# [2] = tested on: chloroquine-resistant K1 strain of P. falciparum; test: In vitro antimalarial semiautomated microdilution assay ([3H]-hypoxanthine incorporation), K1 strain; type: cell-based, Plasmodium falciparum; details: Plasmodium falciparum
# Outline: as §1
# [3] = tested on: ANKA strain of P. berghei; test: Single dose STI in vivo screen in infected mice; parameters: species or system Plasmodium berghei; details: for Survival (days) 10 mg/kg po: single 10 mg/kg po in 3% ethanol and 7% Tween 80; for Survival (days) 10 mg/kg po / Survival (days) 10 mg/kg SSV po / Survival (days) 10 mg/kg sc: untreated 6-7 days; for Survival (days) 10 mg/kg SSV po: single 10 mg/kg po in SSV; for Survival (days) 10 mg/kg sc: single 10 mg/kg sc in 3% ethanol and 7% Tween 80
# [4] = chloroquine-sensitive NF54 strain, 72 h incubation, read-out: IC50 (ng/ml) NF54
# [5] = chloroquine-resistant K1 strain, 72 h incubation, read-out: IC50 (ng/ml) K1
# [6] = single 10 mg/kg po in 3% ethanol and 7% Tween 80 on day 1 post-infection, percent reduction in parasitemia on day 3
# [7] = single 10 mg/kg po in standard suspending vehicle (SSV) on day 1 post-infection, percent reduction in parasitemia on day 3
# [8] = single 10 mg/kg sc in 3% ethanol and 7% Tween 80 on day 1 post-infection, percent reduction in parasitemia on day 3
# [9] = NF54, 72 h, read-out: IC50 (ng/ml) NF54, chloroquine-sensitive NF54 strain, 72 h incubation
# [10] = K1, 72 h, read-out: IC50 (ng/ml) K1, chloroquine-resistant K1 strain, 72 h incubation
Structure (SMILES),"IC50 [1, 4] [ng/mL]","IC50 [2, 5] [ng/mL]","Activity (%) 10 mg/kg SSV po ([3]; po, 10 mg/kg) [%]","Activity (%) 10 mg/kg po ([3]; po, 10 mg/kg) [%]","Activity (%) 10 mg/kg sc ([3]; sc, 10 mg/kg) [%]",Survival (days) 10 mg/kg po [3] [days],Survival (days) 10 mg/kg SSV po [3] [days],Survival (days) 10 mg/kg sc [3] [days],"Activity (%) 10 mg/kg po [3, 6]","Activity (%) 10 mg/kg SSV po [3, 7]","Activity (%) 10 mg/kg sc [3, 8]","IC50 [1, 9] [ng/mL]","IC50 [2, 10] [ng/mL]"
O=C1c2ccccc2C(=O)N1CC[C@H]1CC[C@]2(CC1)OOC1(O2)C2CC3CC(C2)CC1C3 (stereo partly shown) [OZ215],7.3,6.4,25,96,39,9.7,6.3,7.0,–,–,–,–,–
"c1cc(CN2CCC3(CC2)OOC2(O3)C3CC4CC(C3)CC2C4)ccn1 (stereo not shown) [OZ216, Adamantane-2-spiro-3′-8′-(4′-pyridinylmethyl)-1′,2′,4′-trioxa-8′-azaspiro[4.5]decane]",0.67,0.4,–,–,–,6.3,7.7,11.0,62%,69%,99.02%,–,–
O=C(C[C@H]1CC[C@]2(CC1)OOC1(O2)C2CC3CC(C2)CC1C3)Nc1nccs1 (stereo partly shown) [OZ217],2,2,–,–,–,7.0,6.0,8.0,67%,8%,98%,–,–
O=C(C[C@H]1CC[C@]2(CC1)OOC1(O2)C2CC3CC(C2)CC1C3)N1CCCCC1 (stereo partly shown) [OZ218],3,2,–,–,–,10.0,14.3,9.0,98%,99.30%,99.68%,–,–
"c1ccc(CN2CCC3(CC2)OOC2(O3)C3CC4CC(C3)CC2C4)cc1 (stereo not shown) [OZ220, Adamantane-2-spiro-3′-8′-benzyl-1′,2′,4′-trioxa-8′-azaspiro[4.5]decane]",4.9,6.9,–,–,–,6.0,5.3,10.0,40%,0%,99.95%,–,–
NC(=O)N[C@H]1CC[C@]2(CC1)OOC1(O2)C2CC3CC(C2)CC1C3 (stereo partly shown) [OZ221],> 10,> 10,–,–,–,6.3,7.0,8.0,80%,87%,97%,–,–
CC(C)(C)NC(=O)N[C@H]1CC[C@]2(CC1)OOC1(O2)C2CC3CC(C2)CC1C3 (stereo partly shown) [OZ222],6.3,3.9,–,–,–,7.7,7.0,10.0,87%,75%,99.76%,–,–
COC(=O)c1cncn1C[C@H]1CC[C@]2(CC1)OOC1(O2)C2CC3CC(C2)CC1C3 (stereo partly shown) [OZ223],> 10,4,–,–,–,7.3,6.3,12.0,89%,79%,99.57%,–,–
COC(=O)c1cn(C[C@H]2CC[C@]3(CC2)OOC2(O3)C3CC4CC(C3)CC2C4)cn1 (stereo partly shown) [OZ224],3,2,–,–,–,6.0,5.7,5.7,0%,5%,20%,–,–
O=C(O)c1cn(C[C@H]2CC[C@]3(CC2)OOC2(O3)C3CC4CC(C3)CC2C4)cn1 (stereo partly shown) [OZ225],> 10,7.3,–,–,–,5.7,5.7,6.3,0%,0%,17%,–,–
[N-]=[N+]=NCC[C@H]1CC[C@]2(CC1)OOC1(O2)C2CC3CC(C2)CC1C3 (stereo partly shown) [OZ228],–,–,–,–,–,10.3,6.0,14.0,99.94%,28%,99.94%,2.1,2
"O=C(NC[C@H]1CC[C@]2(CC1)OOC1(O2)C2CC3CC(C2)CC1C3)c1ccccc1C(=O)NC[C@H]1CC[C@]2(CC1)OOC1(O2)C2CC3CC(C2)CC1C3 (stereo partly drawn) [OZ230, N,N′-Bis[cis-[adamantane-2-spiro-3′-1′,2′,4′-trioxaspiro[4.5]dec-8′-yl]methyl]-1,2-benzenedicarboxamide]",–,–,–,–,–,5.3,5.7,5.7,0/0/0%,0/0/0%,0/0/0%,3.6,3.9
"O=C(O)c1cncn1C[C@H]1CC[C@]2(CC1)OOC1(O2)C2CC3CC(C2)CC1C3 (stereo partly drawn) [OZ231, cis-Adamantane-2-spiro-3′-8′-(5′-carboxy-1′H-imidazol-1′-ylmethyl)-1′,2′,4′-30 trioxaspiro[4.5]decane]",–,–,–,–,–,5.3,5.7,6.0,0/0/0%,0/0/0%,0/0/0%,> 10,> 10
CN(C)C[C@H]1CC[C@]2(CC1)OOC1(O2)C2CC3CC(C2)CC1C3 (stereo partly shown) [OZ232],–,–,–,–,–,8.0,7.3,8.7,76%,74%,99.94%,0.5,0.3
COC(=O)c1ncnn1C[C@H]1CC[C@]2(CC1)OOC1(O2)C2CC3CC(C2)CC1C3 (stereo partly shown) [OZ233],–,–,–,–,–,7.0,7.7,8.3,69%,76%,99.66%,1.9,1.7
COC(=O)c1ncn(C[C@H]2CC[C@]3(CC2)OOC2(O3)C3CC4CC(C3)CC2C4)n1 (stereo partly shown) [OZ234],–,–,–,–,–,6.0,6.0,6.3,12%,0%,0%,3.6,3
NC(=O)CN(CC(N)=O)C[C@H]1CC[C@]2(CC1)OOC1(O2)C2CC3CC(C2)CC1C3 (stereo partly shown) [OZ236],–,–,–,–,–,6.3,7.7,7.7,89%,86%,98.61%,2,2
